From ChEMBL document CHEMBL4823282, “Novel Broad-Spectrum Antimicrobial Peptide Derived from Anoplin and Its Activity on Bacterial Pneumonia in Mice” (J Med Chem, 2021)
Converted amounts (≈) assume the structure as drawn. Where a SMILES comes first, the peptide text is derived from it.

Legend:
Enterococcus faecalis = test: Antibacterial activity against Enterococcus faecalis ATCC 29212 incubated for 18 hrs by CLSI based broth dilution method; assay type: functional
Acinetobacter baumannii = test: Antibacterial activity against Acinetobacter baumannii ATCC 19606 incubated for 18 hrs by CLSI based broth dilution method; assay type: functional; settings: ATCC 19606 = CIP 70.34 = JCM 6841
Staphylococcus aureus = test: Antibacterial activity against Staphylococcus aureus ATCC 25923 incubated for 18 hrs by CLSI based broth dilution method; assay type: functional
Pseudomonas aeruginosa = test: Antibacterial activity against Pseudomonas aeruginosa ATCC 27853 incubated for 18 hrs by CLSI based broth dilution method; assay type: functional
Klebsiella pneumoniae = test: Antibacterial activity against Klebsiella pneumoniae ATCC 700603 incubated for 18 hrs by CLSI based broth dilution method; assay type: functional
Bacillus subtilis = test: Antibacterial activity against Bacillus subtilis ATCC 23857 incubated for 18 hrs by CLSI based broth dilution method; assay type: functional
[1] = test system: Staphylococcus epidermidis; test: Antibacterial activity against Staphylococcus epidermidis ATCC 12228 incubated for 18 hrs by CLSI based broth dilution method; assay type: functional
Escherichia coli = test: Antibacterial activity against Escherichia coli ATCC 25922 incubated for 18 hrs by CLSI based broth dilution method; assay type: functional
[2] = Cytotoxicity against human glomerular mesangial cells incubated for 12 hrs by MTT assay; assay type: cell-based; settings: Glomerular mesangial cell
[3] = Selectivity ratio of MHC10 for BALB/C mouse erythrocytes to MIC for fungi; assay type: toxicity
Fungi = test: Antibacterial activity against fungi incubated for 18 hrs by CLSI based broth dilution method; assay type: functional
Bacteria [4] = test: Antibacterial activity against Gram-negative bacteria incubated for 18 hrs by CLSI based broth dilution method; assay type: functional
Bacteria [5] = test: Antibacterial activity against bacteria incubated for 18 hrs by CLSI based broth dilution method; assay type: functional
Bacteria [6] = test: Antibacterial activity against Gram-positive bacteria incubated for 18 hrs by CLSI based broth dilution method; assay type: functional
[7] = Selectivity ratio of MHC10 for BALB/C mouse erythrocytes to MIC for gram positive bacteria; assay type: toxicity
[8] = Selectivity ratio of MHC10 for BALB/C mouse erythrocytes to MIC for gram-negative bacteria; assay type: toxicity
[9] = Selectivity ratio of MHC10 for BALB/C mouse erythrocytes to MIC for bacteria; assay type: toxicity
Erythrocyte = test: Hemolytic activity in BALB/C mouse erythrocytes incubated for 1 hr by absorbance method; assay type: ADME, cell-based

Compound: NC[C@H]1O[C@H](O[C@H]2[C@H](O)[C@@H](O[C@H]3O[C@H](CO)[C@@H](O)[C@H](N)[C@H]3O)[C@H](N)C[C@@H]2N)[C@H](O)[C@@H](O)[C@@H]1O [KANAMYCIN]
- MIC (Enterococcus faecalis): 8 µM (≈ 3.88 µg/mL)
- MIC (Acinetobacter baumannii): 4 µM (≈ 1.94 µg/mL)
- MIC (Staphylococcus aureus): < 1 µM
- MIC (Pseudomonas aeruginosa): 8 µM (≈ 3.88 µg/mL)
- MIC (Klebsiella pneumoniae): 32 µM (≈ 15.5 µg/mL)
- MIC (Bacillus subtilis): < 1 µM
- MIC [1]: < 1 µM
- MIC (Escherichia coli): 8 µM (≈ 3.88 µg/mL)

Compound: N=C(N)NCCC[C@H](NC(=O)[C@H](CCCNC(=N)N)NC(=O)[C@H](Cc1c[nH]c2ccccc12)NC(=O)[C@H](CCCNC(=N)N)NC(=O)[C@H](CCCNC(=N)N)NC(=O)[C@H](Cc1c[nH]c2ccccc12)NC(=O)[C@H](Cc1c[nH]c2ccccc12)NC(=O)[C@@H](N)CCCNC(=N)N)C(=O)N[C@@H](Cc1c[nH]c2ccccc12)C(=O)N[C@@H](Cc1c[nH]c2ccccc12)C(N)=O (H-RWWRRWRRWW-NH2)
- MIC (Enterococcus faecalis): 32 µM (≈ 55.3 µg/mL)
- MIC (Acinetobacter baumannii): 128 µM (≈ 221 µg/mL)
- IC50 [2]: 11.2 µM
- MIC (Staphylococcus aureus): 8 µM (≈ 13.8 µg/mL)
- selectivity ratio [3]: 2.5
- MIC (Pseudomonas aeruginosa): 32 µM (≈ 55.3 µg/mL)
- MIC (Fungi): 17.4 µM (≈ 30.2 µg/mL)
- MIC (Klebsiella pneumoniae): 32 µM (≈ 55.3 µg/mL)
- MIC (Bacillus subtilis): 4 µM (≈ 6.92 µg/mL)
- MIC (Bacteria [4]): 22.6 µM (≈ 39.1 µg/mL)
- MIC (Bacteria [5]): 17.4 µM (≈ 30.2 µg/mL)
- MIC (Bacteria [6]): 13.5 µM (≈ 23.3 µg/mL)
- MIC [1]: 32 µM (≈ 55.3 µg/mL)
- selectivity ratio at 18 h [7]: 3.23
- selectivity ratio [8]: 1.93
- selectivity ratio [9]: 2.5
- MIC (Escherichia coli): 32 µM (≈ 55.3 µg/mL)
- MHC10 (Erythrocyte): 43.67 µM

Compound: C[C@H](NC(=O)[C@H](C)NC(=O)[C@@H](NC(=O)[C@H](CCCCN)NC(=O)[C@H](C)NC(=O)[C@H](CCCNC(=N)N)NC(=O)[C@H](CCCCN)NC(=O)[C@H](C)NC(=O)[C@H](C)NC(=O)CN)[C@@H](C)O)C(N)=O (H-GAAKRAKTAA-NH2)
- MIC (Enterococcus faecalis): ≥ 512 µM
- MIC (Acinetobacter baumannii): ≥ 512 µM
- IC50 [2]: ≥ 512 µM
- MIC (Staphylococcus aureus): ≥ 512 µM
- selectivity ratio [3]: 1
- MIC (Pseudomonas aeruginosa): ≥ 512 µM
- MIC (Fungi): ≥ 512 µM
- MIC (Klebsiella pneumoniae): ≥ 512 µM
- MIC (Bacillus subtilis): ≥ 512 µM
- MIC (Bacteria [4]): ≥ 512 µM
- MIC (Bacteria [5]): ≥ 512 µM
- MIC (Bacteria [6]): ≥ 512 µM
- MIC [1]: ≥ 512 µM
- selectivity ratio at 18 h [7]: 1
- selectivity ratio [8]: 1
- selectivity ratio [9]: 1
- MIC (Escherichia coli): ≥ 512 µM
- MHC10 (Erythrocyte): >= 512 uM

Compound: CO/N=C(\C(=O)N[C@@H]1C(=O)N2C(C(=O)O)=C(COC(C)=O)CS[C@H]12)c1csc(N)n1 [CEFOTAXIME]
- MIC (Enterococcus faecalis): ≥ 512 µM
- MIC (Acinetobacter baumannii): 32 µM (≈ 14.6 µg/mL)
- MIC (Staphylococcus aureus): 2 µM (≈ 0.911 µg/mL)
- MIC (Pseudomonas aeruginosa): < 1 µM
- MIC (Klebsiella pneumoniae): 8 µM (≈ 3.64 µg/mL)
- MIC (Bacillus subtilis): < 1 µM
- MIC [1]: 2 µM (≈ 0.911 µg/mL)
- MIC (Escherichia coli): < 1 µM

Compound: CC(C)C[C@H](NC(=O)[C@H](Cc1ccccc1)NC(=O)CN)C(=O)N[C@@H](CCCCN)C(=O)N[C@@H](CCCNC(=N)N)C(=O)N[C@@H](Cc1ccccc1)C(=O)N[C@@H](CCCCN)C(=O)N[C@H](C(=O)N[C@@H](CC(C)C)C(=O)N[C@@H](Cc1ccccc1)C(N)=O)[C@@H](C)O (H-GFLKRFKTLF-NH2)
- MIC (Enterococcus faecalis): 128 µM (≈ 161 µg/mL)
- MIC (Acinetobacter baumannii): 128 µM (≈ 161 µg/mL)
- IC50 [2]: 209 µM
- MIC (Staphylococcus aureus): 64 µM (≈ 80.4 µg/mL)
- selectivity ratio [3]: 7.78
- MIC (Pseudomonas aeruginosa): 64 µM (≈ 80.4 µg/mL)
- MIC (Fungi): 49.4 µM (≈ 62 µg/mL)
- MIC (Klebsiella pneumoniae): 128 µM (≈ 161 µg/mL)
- MIC (Bacillus subtilis): 64 µM (≈ 80.4 µg/mL)
- MIC (Bacteria [4]): 53.8 µM (≈ 67.6 µg/mL)
- MIC (Bacteria [5]): 49.4 µM (≈ 62 µg/mL)
- MIC (Bacteria [6]): 45.3 µM (≈ 56.9 µg/mL)
- MIC [1]: 8 µM (≈ 10 µg/mL)
- selectivity ratio at 18 h [7]: 8.48
- selectivity ratio [8]: 7.14
- selectivity ratio [9]: 7.78
- MIC (Escherichia coli): 64 µM (≈ 80.4 µg/mL)
- MHC10 (Erythrocyte): 384 µM

Compound: CC(C)C[C@H](NC(=O)CN)C(=O)N[C@@H](CC(C)C)C(=O)N[C@@H](CCCCN)C(=O)N[C@@H](CCCNC(=N)N)C(=O)N[C@@H](CC(C)C)C(=O)N[C@@H](CCCCN)C(=O)N[C@H](C(=O)N[C@@H](CC(C)C)C(=O)N[C@@H](C)C(N)=O)[C@@H](C)O (H-GLLKRLKTLA-NH2)
- MIC (Enterococcus faecalis): ≥ 512 µM
- MIC (Acinetobacter baumannii): ≥ 512 µM
- IC50 [2]: ≥ 512 µM
- MIC (Staphylococcus aureus): 256 µM (≈ 285 µg/mL)
- selectivity ratio [3]: 3.08
- MIC (Pseudomonas aeruginosa): 256 µM (≈ 285 µg/mL)
- MIC (Fungi): 166 µM (≈ 185 µg/mL)
- MIC (Klebsiella pneumoniae): 256 µM (≈ 285 µg/mL)
- MIC (Bacillus subtilis): 32 µM (≈ 35.6 µg/mL)
- MIC (Bacteria [4]): 215 µM (≈ 239 µg/mL)
- MIC (Bacteria [5]): 166 µM (≈ 185 µg/mL)
- MIC (Bacteria [6]): 128 µM (≈ 142 µg/mL)
- MIC [1]: 64 µM (≈ 71.1 µg/mL)
- selectivity ratio at 18 h [7]: 4
- selectivity ratio [8]: 2.38
- selectivity ratio [9]: 3.08
- MIC (Escherichia coli): 256 µM (≈ 285 µg/mL)
- MHC10 (Erythrocyte): >= 512 uM

Compound: CC(C)C[C@H](NC(=O)[C@H](CC(C)C)NC(=O)[C@@H](NC(=O)[C@H](CCCCN)NC(=O)[C@H](Cc1ccccc1)NC(=O)[C@H](CCCNC(=N)N)NC(=O)[C@H](CCCCN)NC(=O)[C@H](CC(C)C)NC(=O)[C@H](CC(C)C)NC(=O)CN)[C@@H](C)O)C(N)=O (H-GLLKRFKTLL-NH2)
- MIC (Enterococcus faecalis): 256 µM (≈ 304 µg/mL)
- MIC (Acinetobacter baumannii): 256 µM (≈ 304 µg/mL)
- IC50 [2]: ≥ 512 µM
- MIC (Staphylococcus aureus): 128 µM (≈ 152 µg/mL)
- selectivity ratio [3]: 7.34
- MIC (Pseudomonas aeruginosa): 64 µM (≈ 76 µg/mL)
- MIC (Fungi): 69.8 µM (≈ 82.9 µg/mL)
- MIC (Klebsiella pneumoniae): 128 µM (≈ 152 µg/mL)
- MIC (Bacillus subtilis): 32 µM (≈ 38 µg/mL)
- MIC (Bacteria [4]): 76.1 µM (≈ 90.4 µg/mL)
- MIC (Bacteria [5]): 69.8 µM (≈ 82.9 µg/mL)
- MIC (Bacteria [6]): 64 µM (≈ 76 µg/mL)
- MIC [1]: 16 µM (≈ 19 µg/mL)
- selectivity ratio at 18 h [7]: 8
- selectivity ratio [8]: 6.73
- selectivity ratio [9]: 7.34
- MIC (Escherichia coli): 64 µM (≈ 76 µg/mL)
- MHC10 (Erythrocyte): >= 512 uM
